Assays:
B. subtilis 168 [1] = assay: fitness (endpoint OD595 vs no drug) (fraction); higher = more growth
Summary of the method: (§1)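 Plates with 384 wells were inoculated at OD595 0.01 using 30 µl of TSB, LB Lennox or CY, or 55 µl for S. pneumoniae. Incubation was at 37 °C, with OD595 measured every 30 min for 14 h. Fitness is the stationary-phase transition optical density over the robust mean of no-drug control wells, after first-reading background subtraction; it is capped at 1.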

S. pneumoniae D39V [2] = assay: as above
Summary of the method: as §1

B. subtilis 168 [3] = assay: Bliss interaction score (quartile over a dose matrix) (fitness difference); higher = more antagonism (negative = synergy)
Summary of the method: (§2)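 Fitness is OD595 at stationary-phase entry relative to the plate's robust no-drug mean, capped at 1. Single-drug fitness was inferred from combinations. The Bliss score is observed minus product-expected fitness, summarised by quartiles over technical, biological and donor/recipient replicates.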

S. aureus DSM 20231 = assay: as above
Summary of the method: as §2

S. aureus Newman = assay: as above
Summary of the method: as §2

S. pneumoniae D39V [4] = assay: as above
Summary of the method: as §2
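For Bliss interaction score (quartile over a dose matrix) in this document: first quartile when negative (synergy) and third quartile when positive (antagonism).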

C[C@H]1COc2c(N3CCN(C)CC3)c(F)cc3c(=O)c(C(=O)O)cn1c23 [Levofloxacin] + CN1C2=CC=CC=C2N=C3C1=CC=CC3=O [Pyocyanin]
fitness, one replicate
Details	first compound 0.001 µg/mL	first compound 0.002 µg/mL	first compound 0.0039 µg/mL	first compound 0.2 µg/mL	first compound 0.4 µg/mL	first compound 0.8 µg/mL
B. subtilis 168 [1], partner 1.25 µg/mL	0.891	0.8	0.846	–	–	–
B. subtilis 168 [1], partner 2.5 µg/mL	0.864	0.813	0.795	–	–	–
B. subtilis 168 [1], partner 5 µg/mL	0.68	0.621	0.64	–	–	–
S. pneumoniae D39V [2], partner 0.325 µg/mL	–	–	–	0.878	0.371	0.296
S. pneumoniae D39V [2], partner 0.65 µg/mL	–	–	–	0.965	0.875	0.679

fitness
Details	first compound 0.0312 µg/mL	first compound 0.0625 µg/mL	first compound 0.125 µg/mL	first compound 0.1725 µg/mL	first compound 0.345 µg/mL	first compound 0.69 µg/mL
B. subtilis 168 [1], partner 1.25 µg/mL	0.0394	0.0289	0.03	–	–	–
B. subtilis 168 [1], partner 2.5 µg/mL	0.0377	0.0408	0.0364	–	–	–
B. subtilis 168 [1], partner 5 µg/mL	0.0364	0.0433	0.0258	–	–	–
S. pneumoniae D39V [2], partner 0.325 µg/mL	–	–	–	0.988	0.936	0.668
S. pneumoniae D39V [2], partner 0.65 µg/mL	–	–	–	0.958	0.896	0.596
S. pneumoniae D39V [2], partner 1.3 µg/mL	–	–	–	0.782	0.74	0.459

Details	Bliss interaction score
B. subtilis 168 [3]	-0.0161
S. aureus DSM 20231	0.0335
S. aureus Newman	-0.0335
S. pneumoniae D39V [4]	0.0846

C[C@H]1COc2c(N3CCN(C)CC3)c(F)cc3c(=O)c(C(=O)O)cn1c23 [Levofloxacin] + CN[C@@H]1[C@H](O)[C@H](NC)[C@H]2O[C@@]3(O)C(=O)C[C@@H](C)O[C@H]3O[C@@H]2[C@H]1O [Spectinomycin]
fitness, one replicate
Details	first compound 0.001 µg/mL	first compound 0.002 µg/mL	first compound 0.0039 µg/mL	first compound 0.2 µg/mL	first compound 0.4 µg/mL	first compound 0.8 µg/mL
B. subtilis 168 [1], partner 2 µg/mL	0.986	0.966	0.988	–	–	–
B. subtilis 168 [1], partner 4 µg/mL	0.955	0.888	≥ 1	–	–	–
B. subtilis 168 [1], partner 8 µg/mL	0.99	0.912	≥ 1	–	–	–
S. pneumoniae D39V [2], partner 4 µg/mL	–	–	–	0.96	0.868	0.446
S. pneumoniae D39V [2], partner 8 µg/mL	–	–	–	0.9	0.804	0.508

fitness
Details	first compound 0.0312 µg/mL	first compound 0.0625 µg/mL	first compound 0.125 µg/mL	first compound 0.1725 µg/mL	first compound 0.345 µg/mL	first compound 0.69 µg/mL
B. subtilis 168 [1], partner 2 µg/mL	0.036	0.0431	0.0402	–	–	–
B. subtilis 168 [1], partner 4 µg/mL	0.0347	0.0352	0.0401	–	–	–
B. subtilis 168 [1], partner 8 µg/mL	0.0234	0.0342	0.0261	–	–	–
S. pneumoniae D39V [2], partner 4 µg/mL	–	–	–	0.875	0.808	0.41
S. pneumoniae D39V [2], partner 8 µg/mL	–	–	–	0.928	0.816	0.439
S. pneumoniae D39V [2], partner 16 µg/mL	–	–	–	0.835	0.737	0.396

Details	Bliss interaction score
B. subtilis 168 [3]	-0.0192
S. aureus DSM 20231	0.0353
S. aureus Newman	-0.0582
S. pneumoniae D39V [4]	-0.0643

Source: the supplement of paper PMC10627819
